Laboratory results taken from US20260000601A1, “Anti-Carbonylation Composition And Method Of Protecting Keratin Materials From Carbonylation Stimuli By Using Compositions Including Polylysines” (ELC Management LLC, priority 2022, published 2026).

Test system: Bovine Serum Albumin (BSA)
Assay: In vitro anti-carbonylation efficacy test (acrolein-induced carbonylation of BSA, Protein Carbonyl Assay Kit)
Settings: BSA + acrolein in PBS, 37° C. overnight; for % inhibition of carbonylation (average): blank = 0%; for Percentage of protein carbonylation level (average): blank = 100%
[1] = agent working concentration 0.005%
[2] = agent working concentration 0.05%

Experimental: This assay provides an in vitro method to determine how an anti-carbonylation agent/composition affects the extent of protein carbonylation. With deionized water, the anti-carbonylation agent/composition to be tested was made into a 1% solution, Bovine Serum Albumin (BSA) was made into a 10 mg/mL solution, and Acrolein was made into a 10 mM solution. Then, in a 1.5 mL centrifuge tube, according to the content in Table 1, BSA (10 mg/mL), anti-carbonylation agent/composition (1%), Acrolein (10 mM) and Phosphate buffer solution (PBS) were added to the centrifuge tube. The sample containing only BSA and PBS served as a baseline, and the sample containing BSA, Acrolein and PBS served as a blank. The final liquid volume in each centrifuge tube was 1.0 mL. Each group contained three replicate samples, and all samples were placed at 37° C. overnight.
The protein carbonyl content in the above samples was detected by using the Protein Carbonyl Assay Kit of Nanjing Jiancheng Bioengineering Institute. The detection methods are as follows: take 0.1 mL of sample into the assay tube, then add 0.4 mL of reagent 3 in the kit, vortex to mix for 1 min, and react at 37° C. for 30 min in the dark. Add 0.5 mL of reagent 5 in the kit, vortex and mix for 1 min, centrifuge at 12,000 r/min for 10 min at 4° C., discard the supernatant, and leave the pellet. Add 1.0 mL of anhydrous ethanol and ethyl acetate (1:1) mixed solution, vortex to mix for 1 min, centrifuge at 12,000 r/min for 10 min at 4° C., discard the supernatant, leave the precipitate, and repeat the above steps four times. Add 1.25 mL of reagent VI in the kit, mix well, place it in 37° C. for 15 min, vortex to mix, dissolve all the precipitates, and centrifuge at 12,000 r/min for 15 minutes. Take the supernatant in a quartz cuvette with a light diameter of 0.5 cm, adjust the zero with reagent six, and measure the absorbance value of each tube at 370 nm (ultraviolet). According to the formula, we can get the protein carbonyl content.
The protein content of the samples was determined using Thermos's Micro BCA™ Protein Assay Kit. First, prepare Diluted Albumin (BSA) Standards (Working Range=20-750 μg/mL). Mix BCA Reagent A with Reagent B (Reagent A:Reagent B=50:1) to prepare working solution. Take 25 μL each of the protein standard at different dilution concentration and the protein sample, add them to the microplate. Add 200 μL of working solution to each well and mix well by shaking on a shaker for 30 s. The microplate was sealed and incubated at 37° C. for 30 min. Cool the microplate to room temperature and measure the absorbance of the sample at a wavelength of 562 nm. The corrected absorbance value is the absorbance value of the blank sample subtracted from the readings of each standard and sample. The protein concentration was read against a standard curve prepared with known amounts of BSA. Referring to the standard curve, according to the corrected absorbance value of each protein sample, read the protein concentration of each sample within the linear range of the standard curve. Calculate the amount of protein in the original sample based on the sample volume and dilution.
The anti-carbonylation capability of each anti-carbonylation agents/composition can be obtained by dividing the carbonylation degree of the sample by the BSA protein content.

Molecule	% inhibition of carbonylation (average) [1] [%]	Percentage of protein carbonylation level (average) [1] [%]	% inhibition of carbonylation (average) [2] [%]	Percentage of protein carbonylation level (average) [2] [%]
NCCCC[C@H](N)C(=O)O [L-Lysine]	21	79	40	60
Dendritic PL: dendritic polylysine, DendriClear from Lucas Meyer, Mw = 6171		43		19
